Measurements published in publication PMC7794397, “Curbing gastrointestinal infections by defensin fragment modifications without harming commensal microbiota” (Communications Biology, 2021).
“And” between values parts separate entries of the source, which are not always exact repeats. Identical values can stand only once. Like-named read-outs stand apart in the source and are kept apart here. Residues, ends and D or L forms follow the SMILES beside them. *: point of attachment. Palmitoyl = CCCCCCCCCCCCCCCC(=O)*; AEEA = NCCOCCOCC(=O)O

Assays:
S. Typhimurium DSM554 = settings: for Fold change in MIC: relative to MIC of first passage, Mean
Description: Development of resistance to the peptides was assessed with S. aureus and S. Typhimurium. […] Bacteria were cultured overnight at 37 °C at 150 rpm in TSB. Bacteria were washed twice with 10 mM sodium phosphate buffer containing 1% (w/v) TSB. […] After incubation, 100 µl of 6% TSB (w/v) was added and plates incubated in a humidified atmosphere for 21 h at 37 °C and 150 rpm.
The MIC, the lowest concentration of peptide/antibiotic that caused a lack of visible bacterial growth, was determined for each bacterial species. […] This was repeated for 25 passages.

[1] = test system: multidrug resistant bacteria belonging to the ESKAPE pathogen panel; type: cell-based
Description: Bactericidal activity was assessed by broth microdilution assay. […] After incubation, 100 µl of 6% TSB (w/v) were added and absorbance was measured at 600 nm (Tecan, Switzerland) and monitored for 18 h. Afterward, 100 µl per well were plated on LB agar to determine the numbers of viable bacteria microbiologically. Bactericidal activity is expressed as the LC99.9, the lowest concentration that killed ≥99.9 % of bacteria.

S. Typhimurium [2] = experiment: Salmonella Typhimurium gastrointestinal infection in mice; type: in vivo, C57BL/6N mice; design: Body weight (% of initial): unit not given here
Description: For S. Typhimurium infections experiments, age- and sex-matched mice between 10 and 14 weeks of age were used. Both- female and male mice were used in experiments. […] Afterward, mice were supplied with water and food ad libitum. 20 h after streptomycin treatment, water and food were withdrawn again, 4 h before the mice were orally infected with 10^5 CFU of S. Typhimurium in 200 μl PBS. Drinking water ad libitum was supplied immediately and food 2 h post infection (p.i.). […] Mice were weighed every day to record potential body-weight loss. All mice were euthanized by asphyxiation with CO2 at indicated time points. Intestinal tissues (small intestine, cecum, colon) were removed aseptically. To collect intestinal content, organs were flushed with PBS. Organs were opened longitudinally, cleaned thoroughly with PBS and weighted. Organs and content were homogenized in PBS using a Polytron homogenizer ([…]).

S. Typhimurium [3] = type: cell-based; settings: radial diffusion assay
Description: Antimicrobial activity was analyzed by radial diffusion assay. Log-phase bacteria were cultivated for up to 18 h in TSB (TSB, Becton Dickinson, USA), washed and diluted to 4 × 10^6 CFU in 10 ml agar. Bacteria were incubated in 10 ml of 10 mM sodium phosphate, pH 7.4, containing 0.3 mg/ml of TSB powder and 1% (w/v) low EEO-agarose (AppliChem). 1 µg of each lipopeptide was pipetted into punched wells in a final volume of 4 µl and diffused into the gel for 3 h at 37 °C. After that, a nutrient-rich gel with 6% TSB (w/v) and 1% agarose in 10 mM sodium phosphate buffer was poured on top of the first gel and incubated for up to 24 h at 37 °C. Then the diameter of inhibition zones was measured.

[4] = Oral tolerance test (safety) in mice; type: in vivo, C57BL/6N mice; settings: for Creatinin / GOT: serum; for Creatinin / GOT / Bodyweight loss: individual animals
Text: C57BL/6N mice were generated and maintained (including breeding and housing) at the animal facilities of the Helmholtz Centre for Infection Research (HZI) under enhanced specific pathogen-free (SPF) conditions. Animals used in the experiments were gender and age matched. Female and male mice with an age of 8–12 weeks were used. Sterilized food and water ad libitum was provided. Mice were kept under a strict 12-h light cycle (lights on at 7:00 am and off at 7:00 pm) and housed in groups of two to six mice per cage. All mice were euthanized by asphyxiation with CO2 and cervical dislocation. All animal experiments were performed in agreement with the local government of Lower Saxony, Germany (approved permission No. 33.19-42502-04-18/2499).
Age- and gender-matched mice received two doses of peptides (0, 125 µg or 250 µg) solved in 100 µl PBS orally per day. Bodyweight and appearance were recorded. The following day, mice were sacrificed and stomach, kidney, spleen, liver, small intestine, cecum, and colon were removed for histological scoring. Around 1 ml of blood was taken from the heart to measure inflammatory markers, including creatinine in the kidney and the enzyme levels of glutamate-oxalacetate-transaminase (GOT) in the liver.

[5] = 250 µg orally 6 and 22 h p.i., 48 h after infection, individual animals, N = 12
[6] = histology, animals with signs of pathology/total, treated twice with 250 µg orally, within 24 h
[7] = one day after 2 x 125 µg orally, N = 4
[8] = one day after 2 x 250 µg orally, N = 6

CCCCCCCCCCCCCCCC(=O)NCCOCCOCC(=O)N[C@@H](CCCNC(=N)N)C(=O)NCC(=O)N[C@@H](CCCCN)C(=O)N[C@@H](C)C(=O)N[C@@H](CCCCN)C(=O)N[C@@H](CS)C(=O)N[C@@H](CS)C(=O)N[C@@H](CCCCN)C(=O)O [Pam-3] ({Palmitoyl-AEEA}-RGKAKCCK-OH; C-terminus assumed)
Fold change in MIC (S. Typhimurium DSM554; Day (passage) 0): 1.0 | Fold change in MIC (S. Typhimurium DSM554; Day (passage) 1): 0.7 | Fold change in MIC (S. Typhimurium DSM554; Day (passage) 2): 0.5 | Fold change in MIC (S. Typhimurium DSM554; Day (passage) 3): 0.7 | Fold change in MIC (S. Typhimurium DSM554; Day (passage) 4): 0.7 | Fold change in MIC (S. Typhimurium DSM554; Day (passage) 5): 0.7 | Fold change in MIC (S. Typhimurium DSM554; Day (passage) 6): 0.7 | Fold change in MIC (S. Typhimurium DSM554; Day (passage) 7): 0.8 | Fold change in MIC (S. Typhimurium DSM554; Day (passage) 8): 0.7 | Fold change in MIC (S. Typhimurium DSM554; Day (passage) 9): 0.7 | Fold change in MIC (S. Typhimurium DSM554; Day (passage) 10): 1.3 | Fold change in MIC (S. Typhimurium DSM554; Day (passage) 11): 1.2 | Fold change in MIC (S. Typhimurium DSM554; Day (passage) 12): 0.7 | Fold change in MIC (S. Typhimurium DSM554; Day (passage) 13): 0.8 | Fold change in MIC (S. Typhimurium DSM554; Day (passage) 14): 0.7 | Fold change in MIC (S. Typhimurium DSM554; Day (passage) 15): 0.375 | Fold change in MIC (S. Typhimurium DSM554; Day (passage) 16): 0.7 | Fold change in MIC (S. Typhimurium DSM554; Day (passage) 17): 1.0 | Fold change in MIC (S. Typhimurium DSM554; Day (passage) 18): 0.8 | Fold change in MIC (S. Typhimurium DSM554; Day (passage) 19): 0.7 | Fold change in MIC (S. Typhimurium DSM554; Day (passage) 20): 0.5 | Fold change in MIC (S. Typhimurium DSM554; Day (passage) 21): 0.7 | Fold change in MIC (S. Typhimurium DSM554; Day (passage) 22): 1.0 | Fold change in MIC (S. Typhimurium DSM554; Day (passage) 23): 0.5 | Fold change in MIC (S. Typhimurium DSM554; Day (passage) 24): 0.5 | Fold change in MIC (S. Typhimurium DSM554; Day (passage) 25): 0.5 | emergence of resistant isolates (in words) (S. Typhimurium DSM554; continuous serial passages): no resistant S. Typhimurium isolates emerged | effective concentrations (LC99.9) across the panel ([1]; 18 different bacteria, three experiments each): 4.69 to 18.75 µM | overall measured mean effective concentration ([1]; 18 different bacteria, three experiments each, peer review file): 9.38 µM | bactericidal activity (in words) ([1]; broth microdilution, ESKAPE panel): highly effective | S. Typhimurium in cecum content (S. Typhimurium [2]; [5]): 101000000 CFU/ml and 19300000 CFU/ml and 209000000 CFU/ml and 369000000 CFU/ml and 338000000 CFU/ml and 343000000 CFU/ml and 185000000 CFU/ml and 11700000 CFU/ml and 392000000 CFU/ml and 49300000 CFU/ml and 19200000 CFU/ml and 26400000 CFU/ml | S. Typhimurium in cecum tissue (S. Typhimurium [2]; [5]): 22792020 CFU/ml and 690476 CFU/ml and 510638 CFU/ml and 1770972 CFU/ml and 4139241 CFU/ml and 2249657 CFU/ml and 543580 CFU/ml and 809249 CFU/ml and 1834320 CFU/ml and 538642 CFU/ml and 466793 CFU/ml and 451429 CFU/ml | S. Typhimurium in small intestine content (S. Typhimurium [2]; [5]): 19170.1 CFU/ml and 3500 CFU/ml and 430000 CFU/ml and 36000 CFU/ml and 2200 CFU/ml and 10400 CFU/ml and 20600 CFU/ml and 69000 CFU/ml and 70112.2 CFU/ml and 111188 CFU/ml and 78651.7 CFU/ml and 1597222 CFU/ml | S. Typhimurium in small intestine tissue (S. Typhimurium [2]; [5]): 6700.17 CFU/ml and 99601.6 CFU/ml and 75335.4 CFU/ml and 1784.12 CFU/ml and 22916.7 CFU/ml and 29579.1 CFU/ml and 9803.92 CFU/ml and 82191.8 CFU/ml and 12841.1 CFU/ml and 8221.99 CFU/ml and 14925.4 CFU/ml and 10101 CFU/ml | Body weight (% of initial) (S. Typhimurium [2]; Day 0 of S. Typhimurium infection, individual animals, N = 12): 100 | Body weight (% of initial) (S. Typhimurium [2]; Day 1 of S. Typhimurium infection, 250 µg orally 6 and 22 h p.i., individual animals, N = 12): 94.8627 and 88.6861 and 93.3869 and 93.4108 and 92.7247 and 90.6285 and 93.2755 and 91.8377 and 90.7373 and 93.6733 and 93.6223 and 95.0622 | Body weight (% of initial) (S. Typhimurium [2]; Day 2 of S. Typhimurium infection, 250 µg orally 6 and 22 h p.i., individual animals, N = 12): 94.2562 and 87.7476 and 94.3788 and 93.5562 and 89.4912 and 89.5623 and 93.1887 and 92.315 and 87.1434 and 90.8742 and 93.7891 and 93.0505 | weight loss during infection (in words) (S. Typhimurium [2]; Fig. 6d): tends to reduce weight loss | CFU of S. Typhimurium in cecum content and tissue vs PBS (in words) (S. Typhimurium [2]; Mann–Whitney p < 0.0001 and p = 0.0409): significantly reduced | bacterial load in small intestine content vs PBS (in words) (S. Typhimurium [2]; Mann–Whitney p = 0.0024): lowered the bacterial load | bacterial load in small intestine tissue vs PBS (in words) (S. Typhimurium [2]; Mann–Whitney p = 0.8621): without affecting | inhibition of S. Typhimurium growth (in words) (S. Typhimurium [3]): consistently inhibited | acute toxicity (in words) ([4]; histology and serum markers 24 h after two doses of 250 µg orally): did not reveal acute toxicity | Cecum and Colon: Dysplasia [4, 6]: 0/6 | Cecum and Colon: Inflammation [4, 6]: 0/6 | Duodenum-Jejunum: Dysplasia [4, 6]: 0/6 | Duodenum-Jejunum: Inflammation [4, 6]: 0/6 | Jejunum-Ileum: Dysplasia [4, 6]: 2/6 | Jejunum-Ileum: Inflammation [4, 6]: 0/6 | Jejunum-Ileum: Paneth cells [4, 6]: 0/6 | Kidney: Glomeruli [4, 6]: 0/6 | Kidney: Papilla [4, 6]: 0/6 | Kidney: Pelvis [4, 6]: 0/6 | Kidney: Tubuli [4, 6]: 3/6 | Liver: Anisocaryosis [4, 6]: 0/6 | Liver: Double nucleated cells [4, 6]: 0/6 | Liver: Fatty change [4, 6]: 0/6 | Liver: Glycogen [4, 6]: 0/6 | Liver: Hematopoiesis [4, 6]: 0/6 | Liver: Lymphocytic aggregates [4, 6]: 0/6 | Stomach: Glycogen [4, 6]: 0/6 | Stomach: Lymphocytic aggregates [4, 6]: 0/6 | bodyweight (in words) ([4]; oral Pam-3, Fig. 4a): no alterations in bodyweight | serum glutamic oxaloacetic transaminase vs PBS (in words) ([4]; oral Pam-3, Fig. 4b): no significant differences | serum creatinine vs PBS (in words) ([4]; oral Pam-3, Fig. 4c): no significant differences | Creatinin [4, 7]: 0.7 mg/dL and 0.3 mg/dL | GOT [4, 7]: 56 U/I and 83 U/I and 71 U/I and 622 U/I | Creatinin [4, 8]: 0.4 mg/dL and 0.5 mg/dL and 0.3 mg/dL and 0.2 mg/dL and 0.6 mg/dL | GOT [4, 8]: 271 U/I and 163 U/I and 240 U/I and 280 U/I and 771 U/I and 499 U/I | Bodyweight loss ([4]; treated twice with 125 µg orally, N = 5): 98.6047% and 99.4355% and 98.663% and 99.2814% and 97.8588% | Bodyweight loss ([4]; treated twice with 250 µg orally, N = 6): 97.5318% and 97.8707% and 99.133% and 99.7222% and 99.016% and 101.461%
